Experimental findings from patent US20090069317A1, “Insecticidal Methods Using 3-Amino-1,2-Benzisothiazole Derivatives” (BASF SE, priority 2005, published 2009) are described below.

Series [1] concerns Cotton Aphid (Aphis gossypii). As to the kind of experiment: Cotton aphid (Aphis gossypii) cotyledon dip test, mortality. It counts as in vivo. Conditions: 120 h, cotton cotyledons dipped, mortality counts after 5 days, read-out: mortality in comparison with untreated controls. The text has this:
B.1 Cotton Aphid (Aphis gossypii)
(§1) The active compounds were formulated in 50:50 acetone:water and 100 ppm Kinetic® surfactant.
Cotton plants at the cotyledon stage (one plant per pot) were infested by placing a heavily infested leaf from the main colony on top of each cotyledon. The aphids were allowed to transfer to the host plant overnight, and the leaf used to transfer the aphids was removed. The cotyledons were dipped in the test solution and allowed to dry. After 5 days, mortality counts were made.

The next series has as its system Bean Aphid (Aphis fabae). As to the kind of experiment: Bean aphid (Aphis fabae) nasturtium plant dip test, mortality. It counts as in vivo. Conditions: 72 h, nasturtium plants dipped, aphid mortality after 3 days, read-out: mortality in comparison with untreated controls.
Description: B.3. Bean Aphid (Aphis fabae)
as §1
Nasturtium plants grown in Metro mix in the 1st leaf-pair stage (variety ‘Mixed Jewel’) were infested with approximately 20-30 laboratory-reared aphids by placing infested cut plants on top of the test plants. The cut plants were removed after 24 hr. Each plant was dipped into the test solution to provide complete coverage of the foliage, stem, protruding seed surface and surrounding cube surface and allowed to dry in the fume hood. The treated plants were kept at about 25° C. with continuous fluorescent light. Aphid mortality is determined after 3 days.

The subject of series [2] is Green Peach Aphid (Myzus Persicae). As to the kind of experiment: Green peach aphid (Myzus persicae) pepper leaf dip test, mortality. It counts as in vivo. Conditions: foliar, 120 h, pepper plant leaves dipped, aphid mortality after 5 days, read-out: mortality in comparison with untreated controls.
Description: B.2 Green Peach Aphid (Myzus Persicae)
as §1
Pepper plants in the 2nd leaf-pair stage (variety ‘California Wonder’) were infested with approximately 40 laboratory-reared aphids by placing infested leaf sections on top of the test plants. The leaf sections were removed after 24 hr. The leaves of the intact plants were dipped into gradient solutions of the test compound and allowed to dry. Test plants were maintained under fluorescent light (24 hour photoperiod) at about 25° C. and 20-40% relative humidity. Aphid mortality on the treated plants, relative to mortality on check plants, was determined after 5 days.

As usually defined, the mortality is the share of the test organisms that died. For `C#CCN(C1=NS(=O)(=O)c2cccc(Cl)c21)C(C)C` [Compound 4], the mortality at 300 ppm (in series [1]; in the series with Bean Aphid (Aphis fabae)) was > 86% throughout.

A word on the melting point: it is the temperature, or range, at which the solid turns liquid. Consider `CCN(CC)c1nsc2cccc(OC(F)F)c12` [Compound 59], for which the melting point is 49 to 50 °C.

Turning to `CCN(CC)C1=NS(=O)(=O)c2cccc(Cl)c21` [Compound 3], the mortality at 300 ppm (in series [1]; in series [2]; with Bean Aphid (Aphis fabae)) was > 86% each time.

For the compound `CN(C)c1nsc2cccc(Cl)c12` [Compound 49], the mortality at 300 ppm (in series [1]; in series [2]; in the series with Bean Aphid (Aphis fabae)) was > 86% in each case.

`CC(C)N(C1=NS(=O)(=O)c2cccc(Cl)c21)C1CC1` [Compound 6]: the mortality at 300 ppm (in series [1]; in series [2]; in the series on Bean Aphid (Aphis fabae)) was > 86% in each case.

Take `CON(C)C1=NS(=O)(=O)c2cccc(Cl)c21` [Compound 23]: the mortality at 300 ppm (in series [1]; in series [2]; in the series on Bean Aphid (Aphis fabae)) was > 86% throughout.

Regarding `COc1cccc2snc(N(C)C(C)C)c12` [Compound 82], the mortality at 300 ppm in series [1] and in series [2] was > 86% each time.

As for `COc1cccc2snc(N(C)CC(C)C)c12` [Compound 83], the mortality at 300 ppm in series [1] and in series [2] was > 86% in each case.

Regarding `CC(C)CN(C)C1=NS(=O)(=O)c2cccc(OC(F)F)c21` [Compound 42], the mortality at 300 ppm in series [1] and in series [2] was > 86% in each case.

For `CN(C)C1=NS(=O)(=O)c2cccc(Cl)c21` [Compound 2], the mortality at 300 ppm in series [1] and in series [2] was > 86% each time.

Regarding `C=CCN(CCC)C1=NS(=O)(=O)c2cccc(Cl)c21` [Compound 8], the mortality at 300 ppm (in series [1]; in the series on Bean Aphid (Aphis fabae)) was > 86% throughout.

Regarding `COc1c(Br)ccc2snc(N(C)C)c12` [Compound 48, (5-Bromo-4-methoxy-benzo[d]isothiazol-3-yl)-dimethyl-amine], the mortality at 300 ppm in series [1] and in series [2] was > 86% in each case.

On to `CCCN(CC1CC1)C1=NS(=O)(=O)c2cccc(F)c21` [Compound 62], for which the mortality at 300 ppm in series [1] and in series [2] was > 86% each time.

For `COc1ccc(F)c2c1C(N(C)OC)=NS2(=O)=O` [Compound 108], the mortality at 300 ppm in series [1] and in series [2] was > 86% throughout.

For the compound `C#CCN(C1=NS(=O)(=O)c2cccc(OC(F)F)c21)C(C)C` [Compound 36], the mortality at 300 ppm (in series [1]; in series [2]; in the series with Bean Aphid (Aphis fabae)) was > 86% in each case.

Turning to `CC(C)N(C)C1=NS(=O)(=O)c2cccc(F)c21` [Compound 73], the mortality at 300 ppm in series [1] and in series [2] was > 86% in each case.

With `CON(C)C1=NS(=O)(=O)c2cccc(OC(F)F)c21` [Compound 109], the mortality at 300 ppm in series [1] and in series [2] was > 86% in each case.

Take `CCN(Cc1ccccc1)C1=NS(=O)(=O)c2cccc(Cl)c21` [Compound 12]: the mortality at 300 ppm with Bean Aphid (Aphis fabae) is > 86%.

`CCN(CC)c1nsc2cccc(Cl)c12` [Compound 58]: the mortality at 300 ppm in series [1] and in series [2] was > 86% throughout.

For the compound `CN(C)c1n[s+]([O-])c2cccc(Cl)c12` (stereo not drawn) [Compound 78], the mortality at 300 ppm in series [1] and in series [2] was > 86% each time.

`CCN(CC(C)C)C1=NS(=O)(=O)c2cccc(Cl)c21` [Compound 5]: the mortality at 300 ppm (in series [1]; in the series on Bean Aphid (Aphis fabae)) was > 86% each time.

As to `CCN(C)c1n[s+]([O-])c2cccc(OC)c12` (stereo not drawn) [Compound 85], the mortality at 300 ppm in series [1] and in series [2] was > 86% throughout.

Take `COC(C)CN(C)c1nsc2cccc(Cl)c12` (stereo not drawn) [Compound 57]: the mortality at 300 ppm in series [1] and in series [2] was > 86% throughout.

Consider `CCCN(C)c1nsc2cccc(Cl)c12` [Compound 87], for which the mortality at 300 ppm in series [1] and in series [2] was > 86% in each case.

As for `CN(CC#N)C1=NS(=O)(=O)c2cccc(OC(F)F)c21` [Compound 37], the mortality at 300 ppm in series [1] and in series [2] was > 86% throughout.

`CCN(C)c1nsc2cccc(OC(F)F)c12` [Compound 80]: the mortality at 300 ppm in series [1] and in series [2] was > 86% in each case.

For `CC(C)N(O)C1=NS(=O)(=O)c2cccc(Cl)c21` [Compound 98], the mortality at 300 ppm in series [1] and in series [2] was > 86% in each case.

On to `CC(C)N(C1=NS(=O)(=O)c2cccc(Cl)c21)C(C)C` [Compound 11], for which the mortality at 300 ppm in the series on Bean Aphid (Aphis fabae) is > 86%.

For `CCN(C)C1=NS(=O)(=O)c2cccc(Cl)c21` [Compound 7], the mortality at 300 ppm (in series [1]; in series [2]; with Bean Aphid (Aphis fabae)) was > 86% throughout.

For the compound `CCN(C1=NS(=O)(=O)c2cccc(OC)c21)C(C)C` [Compound 28], the mortality at 300 ppm in series [1] and in series [2] was > 86% in each case.

As to `CN(C)C1=NS(=O)(=O)c2cccc(OC(F)F)c21` [Compound 32], the mortality at 300 ppm in series [1] and in series [2] was > 86% in each case.

As for `CCN(C)c1n[s+]([O-])c2cccc(Cl)c12` (stereo not drawn) [Compound 88], the mortality at 300 ppm in series [1] and in series [2] was > 86% each time.

Turning to `CN(CC#N)C1=NS(=O)(=O)c2cccc(Cl)c21` [Compound 15], the mortality at 300 ppm (in series [1]; in series [2]; in the series with Bean Aphid (Aphis fabae)) was > 86% each time.

For `CCN(CC)C1=NS(=O)(=O)c2cccc(OC)c21` [Compound 27], the mortality at 300 ppm in series [1] and in series [2] was > 86% throughout.

As for `CCN(C)c1nsc2cccc(Cl)c12` [Compound 51], the mortality at 300 ppm in series [1] and in series [2] was > 86% in each case.

On to `CCN(C)C1=NS(=O)(=O)c2cccc(F)c21` [Compound 64], for which the mortality at 300 ppm in series [1] and in series [2] was > 86% throughout.

With `C=CCN(C1=NS(=O)(=O)c2cccc(Cl)c21)C(C)C` [Compound 9], the mortality at 300 ppm (in series [1]; in the series with Bean Aphid (Aphis fabae)) was > 86% each time.
